Laboratory results taken from patent US20200163943A1, “METHODS FOR TREATING DRAVET SYNDROME” (Cavion, Inc., priority 2017, published 2020).

Tests used:
[1] = target: α1I + Kir (Homo sapiens, UniProt Q9P0X4); experiment: α1I + Kir potency; format: cell-based
[2] = target: T1, α1I (Homo sapiens, UniProt Q9P0X4); experiment: α1I potency; format: cell-based
[3] = target: N-Type (Homo sapiens, UniProt Q00975); experiment: N-Type calcium channel counter-screen; format: biochemical
[4] = target: PGP (Homo sapiens, UniProt P08183); experiment: PGP substrate assay; format: in vitro ADME
PGP, sequence (P08183 whole entry): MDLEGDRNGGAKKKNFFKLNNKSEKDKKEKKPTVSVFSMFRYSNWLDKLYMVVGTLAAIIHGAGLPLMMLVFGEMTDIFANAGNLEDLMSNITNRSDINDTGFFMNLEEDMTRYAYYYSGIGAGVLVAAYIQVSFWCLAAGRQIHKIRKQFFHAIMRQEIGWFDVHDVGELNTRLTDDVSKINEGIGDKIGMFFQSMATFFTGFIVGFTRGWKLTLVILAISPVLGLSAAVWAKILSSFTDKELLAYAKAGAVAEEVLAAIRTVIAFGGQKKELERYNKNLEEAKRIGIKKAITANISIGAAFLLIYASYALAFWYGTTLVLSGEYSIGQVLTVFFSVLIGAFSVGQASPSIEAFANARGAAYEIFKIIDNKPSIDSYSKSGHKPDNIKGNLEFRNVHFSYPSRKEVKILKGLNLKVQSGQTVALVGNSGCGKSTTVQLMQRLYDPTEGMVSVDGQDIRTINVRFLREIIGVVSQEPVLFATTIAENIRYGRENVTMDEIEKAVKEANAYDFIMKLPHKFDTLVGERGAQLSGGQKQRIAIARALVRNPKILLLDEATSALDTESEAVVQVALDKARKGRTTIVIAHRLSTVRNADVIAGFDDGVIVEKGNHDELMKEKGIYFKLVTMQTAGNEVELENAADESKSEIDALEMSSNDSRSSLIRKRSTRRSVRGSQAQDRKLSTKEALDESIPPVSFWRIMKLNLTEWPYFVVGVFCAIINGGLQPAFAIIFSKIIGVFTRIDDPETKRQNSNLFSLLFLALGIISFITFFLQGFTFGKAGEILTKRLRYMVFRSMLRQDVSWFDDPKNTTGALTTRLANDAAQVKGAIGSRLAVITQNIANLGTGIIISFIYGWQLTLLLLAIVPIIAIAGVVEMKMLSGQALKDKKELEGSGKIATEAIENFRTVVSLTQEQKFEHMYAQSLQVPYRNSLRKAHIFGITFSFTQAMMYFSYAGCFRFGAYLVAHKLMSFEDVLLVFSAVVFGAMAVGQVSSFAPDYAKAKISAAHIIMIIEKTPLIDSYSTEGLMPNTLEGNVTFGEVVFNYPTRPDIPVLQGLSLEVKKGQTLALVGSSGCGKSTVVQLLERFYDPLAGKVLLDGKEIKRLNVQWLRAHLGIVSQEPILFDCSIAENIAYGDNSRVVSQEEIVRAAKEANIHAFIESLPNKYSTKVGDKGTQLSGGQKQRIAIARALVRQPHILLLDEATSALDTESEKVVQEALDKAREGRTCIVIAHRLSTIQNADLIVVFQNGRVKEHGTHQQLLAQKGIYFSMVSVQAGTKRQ

[5] = test system: Na Channel; experiment: Na Channel counter-screen; format: biochemical
[6] = test system: L-Type; experiment: L-Type calcium channel counter-screen; format: biochemical
[7] = Pharmacokinetics in dog; format: in vivo
[8] = target: hERG (Homo sapiens, UniProt Q12809); experiment: hERG counter-screen; format: biochemical
hERG, sequence (Q12809 whole entry): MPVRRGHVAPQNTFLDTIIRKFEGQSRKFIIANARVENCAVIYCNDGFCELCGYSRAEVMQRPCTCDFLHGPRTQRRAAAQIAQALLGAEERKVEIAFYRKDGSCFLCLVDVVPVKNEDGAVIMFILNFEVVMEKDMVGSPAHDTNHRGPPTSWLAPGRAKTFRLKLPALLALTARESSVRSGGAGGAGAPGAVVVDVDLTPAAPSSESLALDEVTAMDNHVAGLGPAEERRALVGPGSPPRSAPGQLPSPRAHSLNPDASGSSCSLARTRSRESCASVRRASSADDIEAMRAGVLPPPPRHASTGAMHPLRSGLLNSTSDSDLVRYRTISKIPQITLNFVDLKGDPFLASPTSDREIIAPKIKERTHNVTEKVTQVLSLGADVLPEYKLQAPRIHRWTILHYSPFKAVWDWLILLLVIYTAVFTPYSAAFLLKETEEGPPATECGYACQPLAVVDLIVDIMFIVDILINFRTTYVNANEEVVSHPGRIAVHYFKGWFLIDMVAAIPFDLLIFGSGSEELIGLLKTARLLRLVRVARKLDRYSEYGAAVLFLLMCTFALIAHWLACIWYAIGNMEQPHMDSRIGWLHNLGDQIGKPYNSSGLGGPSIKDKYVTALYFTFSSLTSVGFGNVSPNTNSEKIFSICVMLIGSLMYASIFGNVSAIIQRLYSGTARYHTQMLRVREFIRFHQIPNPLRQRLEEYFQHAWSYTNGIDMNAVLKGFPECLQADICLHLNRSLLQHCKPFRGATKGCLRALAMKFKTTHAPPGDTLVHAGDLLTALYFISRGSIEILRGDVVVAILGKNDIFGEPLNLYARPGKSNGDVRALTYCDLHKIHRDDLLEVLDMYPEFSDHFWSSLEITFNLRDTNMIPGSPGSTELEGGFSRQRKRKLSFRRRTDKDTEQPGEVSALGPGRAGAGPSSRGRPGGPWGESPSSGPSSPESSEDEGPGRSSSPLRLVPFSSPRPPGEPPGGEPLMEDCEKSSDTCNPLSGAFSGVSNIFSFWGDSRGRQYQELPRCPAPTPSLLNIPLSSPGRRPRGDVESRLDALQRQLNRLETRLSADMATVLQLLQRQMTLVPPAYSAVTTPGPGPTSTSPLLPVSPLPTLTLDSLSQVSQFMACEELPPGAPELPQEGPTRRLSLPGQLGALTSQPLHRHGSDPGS

[9] = Pharmacokinetics in rat; format: in vivo
[10] = Pharmacokinetics in monkey; format: in vivo
[11] = test system: Panlabs; experiment: Panlabs selectivity panel
[12] = target: T1, α1I; experiment: α1I VC (voltage clamp) at set holding potentials; format: cell-based
[13] = test system: WAG/Rij; experiment: WAG/Rij in vivo model; conditions: 10 mpk, @4 hr
[14] = Papp permeability; format: in vitro ADME; conditions: not told
[15] = plasma, 1 mg/kg, PO (1% methylcellulose), 1 mpk
[16] = plasma, 10 mg/kg, PO (1% methylcellulose), 10 mpk
[17] = plasma, 3 mg/kg, PO (1% methylcellulose), 3 mpk

T1 sequence (Q9P0X4 whole entry): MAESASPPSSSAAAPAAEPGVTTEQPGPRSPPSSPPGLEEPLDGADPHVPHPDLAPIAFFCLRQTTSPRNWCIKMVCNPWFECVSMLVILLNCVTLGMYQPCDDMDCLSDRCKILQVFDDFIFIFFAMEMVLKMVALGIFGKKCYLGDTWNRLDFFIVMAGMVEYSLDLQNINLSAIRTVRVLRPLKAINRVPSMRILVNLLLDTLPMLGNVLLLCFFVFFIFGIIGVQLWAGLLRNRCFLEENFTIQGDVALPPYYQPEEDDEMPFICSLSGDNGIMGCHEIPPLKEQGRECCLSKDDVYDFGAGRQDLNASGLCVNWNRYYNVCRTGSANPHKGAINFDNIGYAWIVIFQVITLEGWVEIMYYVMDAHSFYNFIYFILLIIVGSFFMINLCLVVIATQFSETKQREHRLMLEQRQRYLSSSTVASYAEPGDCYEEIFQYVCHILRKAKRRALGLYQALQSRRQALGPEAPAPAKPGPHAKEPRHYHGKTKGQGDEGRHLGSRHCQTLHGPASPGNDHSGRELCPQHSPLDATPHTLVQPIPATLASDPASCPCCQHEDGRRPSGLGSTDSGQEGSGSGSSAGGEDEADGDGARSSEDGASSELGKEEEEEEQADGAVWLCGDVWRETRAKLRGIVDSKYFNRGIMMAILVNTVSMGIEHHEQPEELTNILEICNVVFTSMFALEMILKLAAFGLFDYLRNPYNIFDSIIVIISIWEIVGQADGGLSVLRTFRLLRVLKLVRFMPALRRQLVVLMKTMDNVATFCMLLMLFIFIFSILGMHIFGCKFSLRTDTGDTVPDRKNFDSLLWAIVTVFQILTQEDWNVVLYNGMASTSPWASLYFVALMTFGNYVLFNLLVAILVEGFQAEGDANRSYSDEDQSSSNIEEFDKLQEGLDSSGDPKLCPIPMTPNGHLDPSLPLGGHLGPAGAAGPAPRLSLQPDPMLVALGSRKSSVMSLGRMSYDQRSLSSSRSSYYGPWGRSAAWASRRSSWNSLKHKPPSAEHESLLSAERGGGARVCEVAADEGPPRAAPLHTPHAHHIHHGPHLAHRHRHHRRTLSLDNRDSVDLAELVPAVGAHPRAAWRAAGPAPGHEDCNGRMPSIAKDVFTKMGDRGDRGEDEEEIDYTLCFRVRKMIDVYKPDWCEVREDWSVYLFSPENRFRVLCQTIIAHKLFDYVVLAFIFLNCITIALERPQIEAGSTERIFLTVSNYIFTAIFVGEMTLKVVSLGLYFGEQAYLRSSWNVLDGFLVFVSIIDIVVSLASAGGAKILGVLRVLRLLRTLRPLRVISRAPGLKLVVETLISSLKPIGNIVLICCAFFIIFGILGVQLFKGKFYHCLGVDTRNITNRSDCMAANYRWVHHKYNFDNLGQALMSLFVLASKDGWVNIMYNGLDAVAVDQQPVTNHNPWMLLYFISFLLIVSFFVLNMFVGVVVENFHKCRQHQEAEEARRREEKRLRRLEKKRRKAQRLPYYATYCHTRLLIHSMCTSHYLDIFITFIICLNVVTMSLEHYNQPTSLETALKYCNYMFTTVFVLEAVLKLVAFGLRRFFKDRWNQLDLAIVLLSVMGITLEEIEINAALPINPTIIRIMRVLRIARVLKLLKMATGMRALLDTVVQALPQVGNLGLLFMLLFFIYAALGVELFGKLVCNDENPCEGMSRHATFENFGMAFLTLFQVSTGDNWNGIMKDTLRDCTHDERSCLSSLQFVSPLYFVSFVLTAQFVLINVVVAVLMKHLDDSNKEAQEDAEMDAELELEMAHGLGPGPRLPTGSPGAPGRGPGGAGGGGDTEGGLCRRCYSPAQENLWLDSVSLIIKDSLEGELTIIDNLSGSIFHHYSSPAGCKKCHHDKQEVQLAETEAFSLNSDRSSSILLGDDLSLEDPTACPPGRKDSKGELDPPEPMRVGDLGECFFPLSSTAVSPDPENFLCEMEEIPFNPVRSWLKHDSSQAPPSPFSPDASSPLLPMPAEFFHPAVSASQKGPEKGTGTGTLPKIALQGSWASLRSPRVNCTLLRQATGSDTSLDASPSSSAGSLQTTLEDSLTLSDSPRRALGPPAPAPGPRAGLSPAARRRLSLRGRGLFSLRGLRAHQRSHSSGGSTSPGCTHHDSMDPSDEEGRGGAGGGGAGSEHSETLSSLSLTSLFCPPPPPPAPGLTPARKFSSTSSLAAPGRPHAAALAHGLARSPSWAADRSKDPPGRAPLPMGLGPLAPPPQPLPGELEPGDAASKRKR
α1I + Kir, sequence (Q9P0X4 whole entry): as above

IC50 [1]: 296 nM
IC50 [2]: 9 nM
IC50 [3]: > 10000 nM
PGP [4]: 0.7
Clp ([7]; IV (DMSO)): 0.9 mL/min/kg
T1/2 ([7]; IV (DMSO)): 11 h
F ([7]; PO (1% methylcellulose), 1 mpk): 43%
AUC [7, 15]: 23 µM·h
Cmax [7, 15]: 2100 nM
Clp ([9]; IV (DMSO)): 6 mL/min/kg
F ([9]; PO (1% methylcellulose), 10 mpk): 68%
AUC [9, 16]: 46 µM·h
Cmax [9, 16]: 7600 nM
half-life ([9]; plasma, IV (DMSO)): 1.6 h
Clp ([10]; IV (DMSO)): 17 mL/min/kg
T1/2 ([10]; IV (DMSO)): 0.9 h
F ([10]; PO (1% methylcellulose), 3 mpk): 7%
AUC [10, 17]: 0.6 µM·h
Cmax [10, 17]: 300 nM
IC50 ([12]; −80 mV, read-out: a1I VC (−80 mV)): 98 nM
IC50 ([12]; −100 mV, read-out: α1I VC (−100 mV)): 4200 nM
Papp [14]: 490 ×10⁻⁶ cm/s
Structure (SMILES): C[C@@H](NC(=O)Cc1ccc(C2CC2)cc1)c1ccc(OCC(F)(F)F)cn1 [TTA-A2]
IC50 [5]: > 10000 nM
IC50 [6]: > 10000 nM
IC50 [8]: > 10000 nM
Panlabs hits >50% @10 uM [11]: 0 hits >50% @10 uM
WAG/Rij inhibition [13]: 87% inhibition@4 hr
